{"source": "patent US20040084867A1", "about": "“Individualization of therapy with anticoagulants” (Xanthus Life Sciences, Inc., priority 2002, published 2004)", "key": {"AAMU-Ab": {"system": "AAMU-Ab", "experiment": "Competitive antigen ELISA, cross-reactivity of AAMU-Ab", "assay_type": "binding, rabbit", "conditions": "0 = absence of inhibition or inhibition no higher than 40% at highest concentration tested (5 × 10^−6 M)", "description": "(§1) Buffers and water without additives are filtered through millipore filters and kept for 1 week. BSA, antibodies, Tween™ 20 and horse radish peroxidase conjugates are added to these buffers and water just prior to use. Urine samples are usually collected 4 hours after drinking a cup of coffee (instant or brewed with approximately 100 mg of caffeine per cup) and stored at −80° C. The urine samples are diluted 10 times with sodium phosphate buffer (620 mosm, pH 7.50) and are subsequently diluted with water to give- concentrations of AAMU and 1X no higher than 3×10^−6 M in the ELISA. All the pipettings are done with an eight-channel pipette, except those of the antibody and sample solutions. Starting with the last well, 100 μL of a carbonate buffer (100 mM, pH 9.6) containing 2.5 μg mL^−1 antibodies are added to each well. After 90 min. at room temperature, the wells are washed three times with […] of TPB: isotonic sodium phosphate buffer (310 mosm, pH 7.50) containing 0.05% Tween™ 20.\n(§2) After the initial wash, unoccupied sites are blocked by incubation for 90 min. at room temperature with 100 μL TBP containing 3% BSA. The wells are washed four times with 100 μL TPB. […] The microplate is gently shaken with an orbital shaker at room temperature for 3-4 hours. The wells are washed three times with 100 μL TPB containing 1% BSA and three times with water containing 0.05% Tween™ 20. To the washed plate is added 150 μL of a substrate buffer composed of citric acid (25 mM) and sodium phosphate dibasic buffer (50 mM, pH 5.0) containing 0.06% hydrogen peroxide and 0.04% o-phenylenediamine hydrochloride.\n(§3) Buffers and water without additives were filtered through millipore filters and kept for 1 week. BSA, antibodies, Tween™ 20 and horse radish peroxidase conjugates were added to these buffers and water just prior to use. Urine samples were usually collected 4 hours after drinking a cup of coffee (instant or brewed with approximately 100 mg of caffeine per cup) and stored at −80° C. They were diluted 10 times with sodium phosphate buffer (620 mosm, pH 7.50) and were subsequently diluted with water to give concentrations of AAMU and 1X no higher than 3×10^−6 M in the ELISA. All the pipettings were done with an eight-channel pipette, except those of the antibody and sample solutions. Starting with the last well, 100 μL of a carbonate buffer (100 mM, pH 9.6) containing 2.5 μg mL^−1 antibodies was pipetted. After 90 min. at room temperature, the wells were washed three times with 100 μL of TPB: isotonic sodium phosphate buffer (310 mosm, pH 7.50) containing 0.05% Tween™ 20.\n(§4) After the initial wash, unoccupied sites were blocked by incubation for 90 min. at room temperature with 100 μL TBP containing 3% BSA. The wells were washed four times with 100 μL TPB. […] The microplate was gently shaken with an orbital shaker at room temperature for 3-4 hours. The wells were washed three times with 100 μL with TPB containing 1% BSA and three times with water containing 0.05% Tween™ 20. To the washed plate was added 150 μL of a substrate buffer composed of citric acid (25 mM) and sodium phosphate dibasic buffer (50 mM, pH 5.0) containing 0.06% hydrogen peroxide and 0.04% o-phenylenediamine hydrochloride. After 20 min. at room temperature with shaking, the reaction was stopped with 50 μL of 2.5 N HCl."}, "1X-Ab": {"system": "1X-Ab", "experiment": "Competitive antigen ELISA, cross-reactivity of 1X-Ab", "assay_type": "binding, rabbit", "conditions": "for [1X] × 10^6 (M), 1X concentration determined by ELISA: fixed 1X 3×10^−6 M; for % Cross-Reaction, 1X-Ab: competitive antigen ELISA, 0 = absence of inhibition or inhibition no higher than 40% at highest concentration tested (5 × 10^−6 M)", "description": "as §1, §2, §3, §4"}, "CYP2C9": {"system": "CYP2C9", "conditions": "cited from earlier work"}}, "note": "Like-named read-outs stand apart in the source and are kept apart here. Marks after values point to notes of the source that are not given here."}
{"smiles": "Cn1c(=O)[nH]c2[nH]c(=O)[nH]c2c1=O", "note": "[1-Methyluric acid]", "values": [{"measurement": "% Cross-Reaction, AAMU-Ab", "setting": "AAMU-Ab", "result": 0, "unit": "%"}, {"measurement": "[1X] × 10^6 (M), 1X concentration determined by ELISA", "setting": "1X-Ab; 1U:1X ratio 0.50", "result": "2.75 × 10^6 (M)"}, {"measurement": "[1X] × 10^6 (M), 1X concentration determined by ELISA", "setting": "1X-Ab; 1U:1X ratio 1.00", "result": "3.25 × 10^6 (M)"}, {"measurement": "[1X] × 10^6 (M), 1X concentration determined by ELISA", "setting": "1X-Ab; 1U:1X ratio 1.50", "result": "3.25 × 10^6 (M)"}, {"measurement": "[1X] × 10^6 (M), 1X concentration determined by ELISA", "setting": "1X-Ab; 1U:1X ratio 2.00", "result": "3.60 × 10^6 (M)"}, {"measurement": "apparent increase of 1X concentration", "setting": "1X-Ab; 1U:1X ratio 2.5", "result": 22, "unit": "%"}, {"measurement": "[1X] × 10^6 (M), 1X concentration determined by ELISA", "setting": "1X-Ab; 1U:1X ratio 2.50", "result": "3.65 × 10^6 (M)"}, {"measurement": "apparent increase of 1X concentration", "setting": "1X-Ab; 1U:1X ratio 3.0", "result": 32, "unit": "%"}, {"measurement": "[1X] × 10^6 (M), 1X concentration determined by ELISA", "setting": "1X-Ab; 1U:1X ratio 3.00", "result": "3.95 × 10^6 (M)"}, {"measurement": "[1X] × 10^6 (M), 1X concentration determined by ELISA", "setting": "1X-Ab; 1U:1X ratio 4.00", "result": "4.20 × 10^6 (M)"}, {"measurement": "[1X] × 10^6 (M), 1X concentration determined by ELISA", "setting": "1X-Ab; 1U:1X ratio 5.00", "result": "4.30 × 10^6 (M)"}, {"measurement": "[1X] × 10^6 (M), 1X concentration determined by ELISA", "setting": "1X-Ab; 1U:1X ratio 6.00", "result": "4.50 × 10^6 (M)"}, {"measurement": "[1X] × 10^6 (M), 1X concentration determined by ELISA", "setting": "1X-Ab; 1U:1X ratio 8.00", "result": "4.30 × 10^6 (M)"}, {"measurement": "% Cross-Reaction, 1X-Ab", "setting": "1X-Ab", "result": 11, "unit": "%"}]}
{"smiles": "O=c1[nH]c(=O)c2[nH]c(=O)[nH]c2[nH]1", "note": "[Uric acid]", "values": [{"measurement": "% Cross-Reaction, AAMU-Ab", "setting": "AAMU-Ab", "result": 0, "unit": "%"}, {"measurement": "% Cross-Reaction, 1X-Ab", "setting": "1X-Ab", "result": 0, "unit": "%"}]}
{"smiles": "Cn1c(=O)[nH]c(=O)c2[nH]cnc21", "note": "[3-Methyl Xanthine]", "values": [{"measurement": "% Cross-Reaction, AAMU-Ab", "setting": "AAMU-Ab", "result": 0, "unit": "%"}, {"measurement": "% Cross-Reaction, 1X-Ab", "setting": "1X-Ab", "result": 0, "unit": "%"}]}
{"smiles": "Nc1nc2nc[nH]c2c(=O)[nH]1", "note": "[Guanine]", "values": [{"measurement": "% Cross-Reaction, AAMU-Ab", "setting": "AAMU-Ab", "result": 0, "unit": "%"}, {"measurement": "% Cross-Reaction, 1X-Ab", "setting": "1X-Ab", "result": 0, "unit": "%"}]}
{"smiles": "O=c1cc[nH]c(=O)[nH]1", "note": "[Uracil]", "values": [{"measurement": "% Cross-Reaction, AAMU-Ab", "setting": "AAMU-Ab", "result": 0, "unit": "%"}, {"measurement": "% Cross-Reaction, 1X-Ab", "setting": "1X-Ab", "result": 0, "unit": "%"}]}
{"smiles": "Cn1c(=O)[nH]c2nc[nH]c2c1=O", "note": "[1-Methyl Xanthine (1X), 1-Methyl Xanthine]", "values": [{"measurement": "% Cross-Reaction, AAMU-Ab", "setting": "AAMU-Ab", "result": 0, "unit": "%"}, {"measurement": "% Cross-Reaction, 1X-Ab", "setting": "1X-Ab", "result": 100, "unit": "%"}]}
{"smiles": "Cn1c(=O)[nH]c2[nH]c(=O)n(C)c2c1=O", "note": "[1,7-Dimethyluric acid]", "values": [{"measurement": "% Cross-Reaction, AAMU-Ab", "setting": "AAMU-Ab", "result": 0, "unit": "%"}, {"measurement": "% Cross-Reaction, 1X-Ab", "setting": "1X-Ab", "result": 0, "unit": "%"}]}
{"smiles": "Cn1c(=O)c2c(ncn2C)n(C)c1=O", "note": "[1,3,7-Trimethyl Xanthine (Caffeine), 1,3,7-Trimethyl Xanthine]", "values": [{"measurement": "% Cross-Reaction, AAMU-Ab", "setting": "AAMU-Ab", "result": 0, "unit": "%"}, {"measurement": "% Cross-Reaction, 1X-Ab", "setting": "1X-Ab", "result": 0, "unit": "%"}]}
{"smiles": "Cn1cnc2[nH]c(=O)[nH]c(=O)c21", "note": "[7-Methyl Xanthine]", "values": [{"measurement": "% Cross-Reaction, AAMU-Ab", "setting": "AAMU-Ab", "result": 0, "unit": "%"}, {"measurement": "% Cross-Reaction, 1X-Ab", "setting": "1X-Ab", "result": 0, "unit": "%"}]}
{"smiles": "CC(=O)Nc1c(N)n(C)c(=O)[nH]c1=O", "note": "[5-Acetamino-6-amino-1-methyluracil]", "values": [{"measurement": "% Cross-Reaction, AAMU-Ab", "setting": "AAMU-Ab", "result": 100, "unit": "%"}, {"measurement": "% Cross-Reaction, 1X-Ab", "setting": "1X-Ab", "result": 0, "unit": "%"}]}
{"smiles": "O=c1[nH]c(=O)c2[nH]cnc2[nH]1", "note": "[Xanthine]", "values": [{"measurement": "% Cross-Reaction, AAMU-Ab", "setting": "AAMU-Ab", "result": "0^a %"}, {"measurement": "% Cross-Reaction, 1X-Ab", "setting": "1X-Ab", "result": 0, "unit": "%"}]}
{"smiles": "Cc1nc2[nH]c(=O)[nH]c(=O)c2[nH]1", "note": "[8-Methyl Xanthine]", "values": [{"measurement": "% Cross-Reaction, AAMU-Ab", "setting": "AAMU-Ab", "result": 0, "unit": "%"}, {"measurement": "% Cross-Reaction, 1X-Ab", "setting": "1X-Ab", "result": 0, "unit": "%"}]}
{"smiles": "CC(=O)Nc1c(N)[nH]c(=O)[nH]c1=O", "note": "[5-Acetamino-6-amino-uracil]", "values": [{"measurement": "% Cross-Reaction, AAMU-Ab", "setting": "AAMU-Ab", "result": 0.6, "unit": "%"}, {"measurement": "% Cross-Reaction, 1X-Ab", "setting": "1X-Ab", "result": 0, "unit": "%"}]}
{"smiles": "Cn1c(=O)c2[nH]cnc2n(C)c1=O", "note": "[1,3-Dimethyl Xanthine (Theophylline), 1,3-Dimethyl Xanthine]", "values": [{"measurement": "% Cross-Reaction, AAMU-Ab", "setting": "AAMU-Ab", "result": 0, "unit": "%"}, {"measurement": "% Cross-Reaction, 1X-Ab", "setting": "1X-Ab", "result": 0.2, "unit": "%"}]}
{"smiles": "O=c1[nH]cnc2nc[nH]c12", "note": "[Hypoxanthine]", "values": [{"measurement": "% Cross-Reaction, AAMU-Ab", "setting": "AAMU-Ab", "result": 0, "unit": "%"}, {"measurement": "% Cross-Reaction, 1X-Ab", "setting": "1X-Ab", "result": 0, "unit": "%"}]}
{"smiles": "CC(=O)C[C@@H](c1ccccc1)c1c(O)c2ccccc2oc1=O", "note": "[S-warfarin]", "values": [{"measurement": "↓ in CLpo,u (unbound oral clearance)", "setting": "CYP2C9; 47 Japanese, an individual with *3/*3", "result": "90% ↓ in CLpo,u for (S)-warfarin in an individual"}, {"measurement": "↓ in CLpo,u (unbound oral clearance)", "setting": "CYP2C9; 86 Japanese, 3 individuals with *1/*3", "result": "63% ↓ in CLpo,u for (S)-warfarin in 3 individuals"}]}
{"smiles": "Cn1c(=O)[nH]c2ncn(C)c2c1=O", "note": "[1,7-Dimethyl Xanthine (Paraxanthine), 1,7-Dimethyl Xanthine]", "values": [{"measurement": "% Cross-Reaction, AAMU-Ab", "setting": "AAMU-Ab", "result": 0, "unit": "%"}, {"measurement": "% Cross-Reaction, 1X-Ab", "setting": "1X-Ab", "result": 0.5, "unit": "%"}]}
{"smiles": "Cn1cnc2c1c(=O)[nH]c(=O)n2C", "note": "[3,7-Dimethyl Xanthine (Theobromine), 3,7-Dimethyl Xanthine]", "values": [{"measurement": "% Cross-Reaction, AAMU-Ab", "setting": "AAMU-Ab", "result": 0, "unit": "%"}, {"measurement": "% Cross-Reaction, 1X-Ab", "setting": "1X-Ab", "result": 0, "unit": "%"}]}
{"smiles": "CC(=O)Nc1c(N)n(C)c(=O)n(C)c1=O", "note": "[5-Acetamino-6-amino-1,3-dimethyluracil]", "values": [{"measurement": "% Cross-Reaction, AAMU-Ab", "setting": "AAMU-Ab", "result": 0, "unit": "%"}, {"measurement": "% Cross-Reaction, 1X-Ab", "setting": "1X-Ab", "result": 0, "unit": "%"}]}
